Data: patent US20260158016A1, “HALOPERIDOL DERIVATIVES, PHARMACEUTICAL COMPOSITION COMPRISING SAID DERIVATIVES, AND THERAPEUTIC USES THEREOF” (University of Virginia Patent Foundation, priority 2023, published 2026)
Entries after “also recorded” stand apart in the source; their conditions may differ.

How the values were obtained:
dry AMD = assay: Health insurance claims database analysis (PearlDiver Mariner): risk of developing dry AMD by haloperidol exposure; format: in vivo, human; conditions: for Hazard Ratio of developing dry AMD (adjusted hazard ratio): adjusted Cox proportional hazards regression, propensity-score-matched, patients with schizophrenia or Tourette's disorder aged 50 or older
Text: The retrospective study used claims data from the PearlDiver Mariner database, which contains data on health care claims and medication usage for persons in provider networks over the time period 2010 to the second quarter of 2018.
Patients were included in the analysis if they had continuous enrollment in the plan for at least 1 year and were at least 50 years of age at baseline. Individuals with pre-existing dry AMD (≥1 medical claims prior to diagnosis of schizophrenia or Tourette's disorder) were excluded. Disease claims were identified by International Classification of Diseases (ICD)-9-CM and ICD-10-CM codes.
Exposure to haloperidol—the independent variable—was determined by whether patients filled ≥1 outpatient pharmacy prescriptions for generic or brand versions, either in sole form or as a combination medication, as identified by National Drug Codes.
Time to initial diagnosis of dry AMD was the dependent variable.
Analyses were performed with the use of R software, version 4.2.2 (the R project (www.r-project.org)). To analyze the risk of dry AMD between haloperidol users and haloperidol non-users, an adjusted Cox proportional hazards regression analysis was performed, and the hazard ratio was analyzed by the likelihood ratio test. […] This adjusted model included confounding covariates that influence dry AMD risk: age, sex, smoking, body mass index, and Charlson comorbidity index. Kaplan-Meier survival plots were analyzed by log rank test. Statistical tests were 2-sided. P values <0.05 were considered statistically significant.
To evaluate the robustness of the findings and mitigate any possible residual confounding, we estimated propensity-score models including use of haloperidol and no use of haloperidol. The individual propensities for starting haloperidol treatment were estimated with the use of logistic regression. […] We used the R package MatchIt to perform matching in a 1:1 ratio using greedy nearest neighbor matching. In addition, to control for any residual covariate imbalance, we estimated the relative hazard in the propensity score-matched groups using the multivariable Cox models that included the covariates from the multivariable regression analysis employed for the original unmatched group analyses. Statistical tests were two-sided. P values <0.05 were considered statistically significant.
We performed a retrospective, longitudinal cohort analysis in the PearlDiver Mariner database (comprising 150 million Americans from 2010 to 2018) among patients with schizophrenia or Tourette's disorder (the population that would be exposed to haloperidol or other anti-psychotics) aged 50 or older (the population at risk) to assess the risk of dry AMD.

[1] = system: IL-1β secretion by THP-1 cells; assay: Inflammasome activation: IL-1β secretion ELISA in LPS and ATP stimulated THP-1 cells; format: cell-based, human; conditions: LPS 125 ng/ml 4 h + ATP 5 mM 30 min, haloperidol pretreatment 1 h, P<0.05 vs vehicle
Experimental: Human THP-1 cells were stimulated with LPS (125 ng/ml) for 4 h and ATP (5 mM) for 30 min. For all experiments, cells were pretreated with haloperidol (1, 10, or 100 μM) for 1 h and again after the activating stimuli. Secreted human […] in the conditioned cell culture media was detected using an ELISA kit (R&D Systems) according to the manufacturer's instructions. Mean and SEM values are presented.
Haloperidol was tested for inhibition of inflammasome activation. Inflammasome activation was assessed in human THP-1 monocytes by measuring IL-1ß secretion via ELISA.

[2] = system: Alu RNA-induced RPE degeneration; assay: Alu RNA-induced RPE degeneration in mice (ZO-1 stained RPE flat mounts); format: in vivo, C57BL/6J mice
Experimental: C57BL/6J mice (The Jackson Laboratory) were anesthetized with ketamine hydrochloride and xylazine. In vitro-transcribed Alu RNA (300 ng in 1 μL) was injected subretinally to induce RPE degeneration (Kaneko, 2011). Various doses of haloperidol (Sigma Aldrich; 1-500 ng in 0.5 μL) or PBS (vehicle) was injected into the vitreous humor 24 h before and immediately after Alu RNA injection. Alternatively, various doses of haloperidol (2-10 μg) were administered via intraperitoneal administration on days 1 through 6 after Alu RNA injection. Animals were euthanized 7 days after Alu RNA injection, and the eyes were enucleated.
RPE health was assessed by immunofluorescence staining of zonula occludens-1 (ZO-1) on RPE flat mounts. Flat mounts were fixed with 2% PFA, stained with rabbit polyclonal antibodies against mouse ZO-1 (Invitrogen), visualized with Alexa Fluor 594 (Invitrogen), and imaged (A1R Nikon). Images were graded as healthy or degenerated in masked fashion as previously described (Kerur, 2018). Proportions of eyes with degeneration were compared using Fisher's exact test.

[3] = patients taking haloperidol (Coryell, 1998); cited from earlier work

SMILES: O=C(CCCN1CCC(O)(c2ccc(Cl)cc2)CC1)c1ccc(F)cc1 [haloperidol]
- rate of developing dry AMD (Kaplan-Meier survival analysis) (dry AMD; Mariner database, log-rank test P<0.001): significantly slower rate
- Hazard Ratio of developing dry AMD (adjusted hazard ratio) (dry AMD; Mariner database): 0.747
- Hazard Ratio of developing dry AMD (adjusted hazard ratio) (dry AMD; Mariner database, listed as Haloperidol): 0.7468
- reduced hazard of developing dry AMD (dry AMD; haloperidol exposure vs nonexposure, Mariner, adjusted Cox model): 25%
- IL-1β secretion (inflammasome activation) [1]: reduced; also recorded: inhibits
- eyes protected against RPE degeneration ([2]; 5 ng haloperidol intravitreous, 24 h before and immediately after subretinal Alu RNA, assessed day 7): 70%
- protection against RPE degeneration ([2]; daily intraperitoneal injection at 2 μg, 5 μg, or 10 μg, days 1 through 6 after Alu RNA): 70-80%
- dose with maximal protective effect against RPE degeneration ([2]; intravitreous dose-ranging 1 ng to 500 ng): 5 ng
- Alu RNA-induced RPE degeneration (qualitative) ([2]; subretinal Alu RNA, intravitreous or intraperitoneal haloperidol (FIG. 3)): blocked
- serum concentration [3]: exceeding 20 ng/ml
